Numbered stars: 1 amine (or outer) side, 2 acyl side, 3 side chain; on linkers, the order of the positions; unused ones are H or OH. Square brackets hold non-standard residues; d marks the D form. Ends that are not written are not given here. γGlu = O=C(O)[C@H](CCC(=O)[*:2])N[*:1]; Orn = NCCC[C@H](N)C(=O)O
Biological target: T1, human calcium receptor (Homo sapiens, UniProt P41180)
T1 construct: expressed in transfected cells; host or cells: Xenopus laevis oocytes microinjected with cRNA; gene amplified by PCR from human kidney cDNA (Clontech)
T1 sequence (P41180 20-1078): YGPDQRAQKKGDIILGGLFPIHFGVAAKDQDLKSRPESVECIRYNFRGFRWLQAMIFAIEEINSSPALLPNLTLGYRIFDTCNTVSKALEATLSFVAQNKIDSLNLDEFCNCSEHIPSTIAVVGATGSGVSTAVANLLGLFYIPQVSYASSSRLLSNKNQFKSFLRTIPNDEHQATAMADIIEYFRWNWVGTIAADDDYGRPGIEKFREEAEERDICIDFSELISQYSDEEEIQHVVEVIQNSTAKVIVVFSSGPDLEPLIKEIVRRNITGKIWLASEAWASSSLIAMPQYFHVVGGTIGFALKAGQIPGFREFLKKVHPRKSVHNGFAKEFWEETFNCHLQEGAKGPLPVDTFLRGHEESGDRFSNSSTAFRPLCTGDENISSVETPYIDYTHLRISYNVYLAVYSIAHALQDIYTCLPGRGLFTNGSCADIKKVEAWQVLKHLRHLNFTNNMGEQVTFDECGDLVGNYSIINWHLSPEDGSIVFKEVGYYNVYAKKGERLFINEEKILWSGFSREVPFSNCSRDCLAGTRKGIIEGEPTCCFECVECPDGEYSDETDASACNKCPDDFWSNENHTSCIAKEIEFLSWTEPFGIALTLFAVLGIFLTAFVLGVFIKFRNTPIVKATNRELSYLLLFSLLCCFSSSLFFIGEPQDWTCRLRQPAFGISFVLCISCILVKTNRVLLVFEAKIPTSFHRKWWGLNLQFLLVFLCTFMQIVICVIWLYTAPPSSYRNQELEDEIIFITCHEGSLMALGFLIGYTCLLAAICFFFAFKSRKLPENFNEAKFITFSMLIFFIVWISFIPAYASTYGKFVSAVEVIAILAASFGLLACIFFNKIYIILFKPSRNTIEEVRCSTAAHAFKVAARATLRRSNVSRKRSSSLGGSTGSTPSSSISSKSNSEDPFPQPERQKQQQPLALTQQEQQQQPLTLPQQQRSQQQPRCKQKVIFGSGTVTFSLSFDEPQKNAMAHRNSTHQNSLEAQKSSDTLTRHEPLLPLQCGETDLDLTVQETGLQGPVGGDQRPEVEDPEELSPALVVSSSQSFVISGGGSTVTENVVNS
Test: Calcium receptor activation activity: Ca ion concentration-dependent Cl ionic current in Xenopus laevis oocyte expression system
Format: cell-based
Details: 50 μM peptide; oocytes voltage-clamped at −70 mV
Description: To evaluate calcium receptor activation activity, a Ca ion concentration-dependent Cl ionic current measuring method using a Xenopus laevis oocyte expression system was used. If each activator is added to Xenopus laevis oocytes expressing the calcium receptor, intracellular Ca ions increase. Then, the Ca ion concentration-dependent Cl channel opens, and the intracellular current value changes as an ionic current. By measuring the change in this intracellular current value, the presence or absence of calcium receptor activation activity can be determined.
Specifically, the abdomen of Xenopus laevis was opened, and an egg batch was taken out and treated with a 1% collagenase solution at 20° C. for 2 hours to obtain individual oocytes. Into the oocytes, 50 nl of 1 μg/μl receptor cRNA or 50 nl of sterilized water per oocyte was introduced by using a micro glass capillary, and the oocytes were cultured at 18° C. for 2 or 3 days. For the culture, a solution obtained by adding 2 mM pyruvic acid, 10 U/ml of penicillin, and 10 μg/ml of streptomycin to the solution in Example 2 was used. After the culture, a test solution was added to the oocytes containing either the cRNA or sterilized water. Electrophysiological measurement was performed by using an amplifier, Geneclamp500 (Axon), and recording software, AxoScope 9.0 (Axon). The oocytes were voltage-clamped at −70 mV by the double electrode voltage clamp method, and the intracellular current was measured via the Ca ion concentration-dependent Cl ion channel. The maximum value of the intracellular current was considered as the response current value.
Calcium receptor activation activity of L-amino acids was evaluated by using the method described in Example 13. That is, oocytes containing either cRNA of the calcium receptor or sterilized water were prepared, and voltage-clamped at −70 mV by the double electrode voltage clamp method. To the voltage-clamped oocytes, alanine (10 mM), arginine (10 mM), asparagine (10 mM), aspartic acid (10 mM), cysteine (10 mM), glutamine (10 mM), glutamic acid (10 mM), glycine (10 mM), histidine (10 mM), isoleucine (10 mM), leucine (10 mM), lysine (10 mM), methionine (10 mM), phenylalanine (10 mM), proline (10 mM), serine (10 mM), threonine (10 mM), tryptophan (10 mM), tyrosine (10 mM), valine (10 mM), ornithine (10 mM), taurine (10 mM), or hydroxyproline (10 mM) was added, and Ca ion concentration-dependent Cl response current was measured. […] As for the aforementioned amino acids, the activation activity was reported in Proc. Natl. Acad. Sci. USA, 2000 Apr. 25, 97(9):4814-9.
Calcium receptor activation activity of D-cysteine was evaluated by using the method described in Example 13. That is, oocytes containing either cRNA of the calcium receptor or sterilized water were prepared, and voltage-clamped at −70 mV by the double electrode voltage clamp method. To the voltage-clamped oocytes, D-cysteine (10 mM), L-cysteine (10 mM), D-tryptophan (10 mM), or L-tryptophan (10 mM) was added, and Ca ion concentration-dependent Cl response current was measured.
Calcium receptor activation activity of peptides was evaluated by using the method described in Example 13. That is, oocytes containing either cRNA of the calcium receptor or sterilized water were prepared, and voltage-clamped at −70 mV by the double electrode voltage clamp method.
Calcium receptor activation activity of peptides was evaluated in the same manner as that of Example 17. Each of the peptides shown in Table 2 was added to voltage-clamped oocytes at 1000 μM, 300 μM, 100 μM, 30 μM, 10 μM, 3 μM, 1 μM, 0.3 μM, and 0.1 μM, and Ca ion concentration-dependent Cl response current was measured.

Q: `N[C@@H](CCC(=O)N[C@@H](CSN=O)C(=O)NCC(=O)O)C(=O)O` [γ-Glu-Cys(SNO)-Gly] was tested. Which “calcium receptor activation activity (Ca ion concentration-dependent Cl response current)” value (from here on “calcium receptor activation activity”) did it give?
A: definitive calcium receptor activation activity

Q: Which “calcium receptor activation activity” value does the source give for Glu-Cys here?
A: definitive calcium receptor activation activity

Q: [γGlu]-Thr was tested. Which “calcium receptor activation activity” value did it give?
A: definitive calcium receptor activation activity

Same assay, conditions: 500 μM peptide; oocytes voltage-clamped at −70 mV

Q: Which “calcium receptor activation activity” value does the source give for Gly-Cys here?
A: definitive calcium receptor activation activity

Q: How did the “calcium receptor activation activity” value turn out when γ-Glu-Orn was run?
A: definitive calcium receptor activation activity

Q: How did the “calcium receptor activation activity” value turn out when [γGlu]-Gly was run?
A: definitive calcium receptor activation activity

Same assay, conditions: 1 mM peptide; oocytes voltage-clamped at −70 mV

Q: Cys-Met was tested. Which “calcium receptor activation activity” value did it give?
A: definitive calcium receptor activation activity

Q: For Asp-Gly, which “calcium receptor activation activity” value is on record?
A: definitive calcium receptor activation activity

Q: With Leu-Asp as the compound, how does the “calcium receptor activation activity” value read?
A: definitive calcium receptor activation activity

Q: With Cys-Gly as the compound, how does the “calcium receptor activation activity” value read?
A: definitive calcium receptor activation activity

Same assay, conditions: 10 mM amino acid; oocytes voltage-clamped at −70 mV

Q: With `N[C@H](CS)C(=O)O` [D-cysteine] as the compound, how does the “calcium receptor activation activity” value read?
A: definitive calcium receptor activation activity

Q: For `N[C@@H](Cc1c[nH]c2ccccc12)C(=O)O` [tryptophan, reference compound], which “calcium receptor activation activity” value is on record?
A: definite calcium receptor activation activity

Q: Which “calcium receptor activation activity” value does the source give for `N[C@@H](Cc1ccccc1)C(=O)O` [phenylalanine, reference compound] here?
A: definite calcium receptor activation activity

Q: `N[C@@H](Cc1c[nH]cn1)C(=O)O` [histidine, reference compound] was tested. Which “calcium receptor activation activity” value did it give?
A: definite calcium receptor activation activity

Q: With `N[C@@H](CS)C(=O)O` [cysteine, reference compound] as the compound, how does the “calcium receptor activation activity” value read?
A: definite calcium receptor activation activity

Q: With `N[C@@H](Cc1ccc(O)cc1)C(=O)O` [tyrosine, reference compound] as the compound, how does the “calcium receptor activation activity” value read?
A: definite calcium receptor activation activity

Same assay, conditions: added at 1000, 300, 100, 30, 10, 3, 1, 0.3 and 0.1 μM

Q: How did the “Activity (lowest concentration for which current was detected)” value turn out when [γGlu]-Ser-Gly was run?
A: 30 µM

Q: [γGlu]-Val-Arg was tested. Which “Activity (lowest concentration for which current was detected)” value did it give?
A: 1000 µM

Q: How did the “Activity (lowest concentration for which current was detected)” value turn out when γ-Glu-Tau was run?
A: 300 µM

Q: [γGlu]-Val-Met was tested. Which “Activity (lowest concentration for which current was detected)” value did it give?
A: 1000 µM

Q: Which “Activity (lowest concentration for which current was detected)” value does the source give for [γGlu]-Val-Val here?
A: 1000 µM

Q: [γGlu]-Val-Ser was tested. Which “Activity (lowest concentration for which current was detected)” value did it give?
A: 30 µM

Q: With [γGlu]-Gly-Gly as the compound, how does the “Activity (lowest concentration for which current was detected)” value read?
A: 30 µM

Q: For [γGlu]-Val-Glu, which “Activity (lowest concentration for which current was detected)” value is on record?
A: 1000 µM

Q: With [γGlu]-Val-Pro as the compound, how does the “Activity (lowest concentration for which current was detected)” value read?
A: 30 µM

Q: How did the “Activity (lowest concentration for which current was detected)” value turn out when γ-Glu-t-Leu was run?
A: 100 µM

Q: With [γGlu]-Val-Asn as the compound, how does the “Activity (lowest concentration for which current was detected)” value read?
A: 30 µM

Q: For [γGlu]-[γGlu]-Val, which “Activity (lowest concentration for which current was detected)” value is on record?
A: 1000 µM

Q: How did the “Activity (lowest concentration for which current was detected)” value turn out when [γGlu]-Val-His was run?
A: 100 µM

Q: For [γGlu]-Val-Phe, which “Activity (lowest concentration for which current was detected)” value is on record?
A: 30 µM

Q: [γGlu]-Val-Cys was tested. Which “Activity (lowest concentration for which current was detected)” value did it give?
A: 10 µM

Q: For [γGlu]-Val-[Orn], which “Activity (lowest concentration for which current was detected)” value is on record?
A: 100 µM

Q: How did the “Activity (lowest concentration for which current was detected)” value turn out when γ-Glu-Val-Asp was run?
A: 1000 µM

Q: [γGlu]-Val-Lys was tested. Which “Activity (lowest concentration for which current was detected)” value did it give?
A: 1000 µM

Q: Which “Activity (lowest concentration for which current was detected)” value does the source give for γ-Glu-Cys(S-allyl)-Gly here?
A: 100 µM

Q: [γGlu]-Val-Thr was tested. Which “Activity (lowest concentration for which current was detected)” value did it give?
A: 1000 µM

Q: How did the “Activity (lowest concentration for which current was detected)” value turn out when γ-Glu-Cys(S-Me)-Gly was run?
A: 3 µM

Q: [γGlu]-Val-Gln was tested. Which “Activity (lowest concentration for which current was detected)” value did it give?
A: 10 µM
